Results as given in patent publication US20260070891A1, “METHOD FOR PRODUCING QUINOXALINE DERIVATIVE” (Kyowa Kirin Co., Ltd., priority 2022, published 2026).

Legend:
[1] = Crystal form stability on standing at room temperature, rechecked by powder X-ray diffraction (Test Example 1); type: physicochemical; conditions: allowed to stand for 8 weeks at room temperature
Method: In addition, the measurement of powder X-ray diffraction (reflection method) was performed by pulverizing a sample in an agate mortar, taking an appropriate amount of the sample into a sample plate, and measuring a diffraction peak such that a diffraction angle 20 includes a range of 5° to 40°. The X-ray to be radiated was a copper Ka ray (CuKα ray), and the tube voltage was set to 50 kV, the tube current was set to 1 mA, and the step time was set to 120 seconds. The thermal analysis was performed by taking 2 mg of the sample into an aluminum pan and measuring differential scanning calorimetry (DSC) under a condition of a heating rate of 5° C./min. For the measurement of powder X-ray diffraction (reflection method), D8 DISCOVER manufactured by Bruker AXS was used.
The type II crystal of (R)—N-(3-{2,2,2-trifluoro-1-[6-(2-methyl-2H-1,2,3-triazol-4-yl)pyridin-3-yl]ethoxy}quinoxalin-2-yl) propane-1-sulfonamide obtained in step 3 of Example 1 was allowed to stand for 8 weeks at room temperature.

[2] = Long-term storage stability of crystal at 25° C. and 60% RH (Test Example 1); type: physicochemical; conditions: 25° C. and 60% RH for 5 years

| SMILES | crystal form after standing (powder X-ray diffraction) [1] | stability (properties, related substances, optical isomers, content, powder X-ray diffraction pattern) [2] |
| --- | --- | --- |
| CCCS(=O)(=O)Nc1nc2ccccc2nc1O[C@H](c1ccc(-c2cnn(C)n2)nc1)C(F)(F)F [type II crystal, (R)—N-(3-{2,2,2-trifluoro-1-[6-(2-methyl-2H-1,2,3-triazol-4-yl)pyridin-3-yl]ethoxy}quinoxalin-2-yl) propane-1-sulfonamide] | transition to a mixed crystal of the type III crystal and the type II crystal |  |
| CCCS(=O)(=O)Nc1nc2ccccc2nc1O[C@H](c1ccc(-c2cnn(C)n2)nc1)C(F)(F)F [type III crystal, (R)—N-(3-{2,2,2-trifluoro-1-[6-(2-methyl-2H-1,2,3-triazol-4-yl)pyridin-3-yl]ethoxy}quinoxalin-2-yl)propane-1-sulfonamide] |  | no changes in the properties, related substances, optical isomers, content, or powder X-ray diffraction pattern |
